Publication PMC12294558, “New 1,2,4-Triazole Derivatives with a N-Mannich Base Structure Based on a 4,6-Dimethylpyridine Scaffold as Anticancer Agents: Design, Synthesis, Biological Evaluation, and Molecular Modeling” (International Journal of Molecular Sciences, 2025)

Experiments:
[1] = biological target: T1, P-glycoprotein (LoVo/Dx cells) (Homo sapiens, UniProt P08183); assay: Rhodamine-123 accumulation assay in LoVo/Dx; format: cell-based; conditions: 50 µM, 24 h; versus untreated control
T1 construct: intracellular accumulation of rhodamine 123 (a fluorescent P-gp substrate analog) in P-gp-expressing cell lines (HT-29, LoVo, and LoVo/Dx); endogenous in cells; host or cells: HT-29, LoVo (ECACC via Sigma-Aldrich); LoVo/Dx (doxorubicin-selected subline of LoVo)
T1 sequence (P08183 whole entry): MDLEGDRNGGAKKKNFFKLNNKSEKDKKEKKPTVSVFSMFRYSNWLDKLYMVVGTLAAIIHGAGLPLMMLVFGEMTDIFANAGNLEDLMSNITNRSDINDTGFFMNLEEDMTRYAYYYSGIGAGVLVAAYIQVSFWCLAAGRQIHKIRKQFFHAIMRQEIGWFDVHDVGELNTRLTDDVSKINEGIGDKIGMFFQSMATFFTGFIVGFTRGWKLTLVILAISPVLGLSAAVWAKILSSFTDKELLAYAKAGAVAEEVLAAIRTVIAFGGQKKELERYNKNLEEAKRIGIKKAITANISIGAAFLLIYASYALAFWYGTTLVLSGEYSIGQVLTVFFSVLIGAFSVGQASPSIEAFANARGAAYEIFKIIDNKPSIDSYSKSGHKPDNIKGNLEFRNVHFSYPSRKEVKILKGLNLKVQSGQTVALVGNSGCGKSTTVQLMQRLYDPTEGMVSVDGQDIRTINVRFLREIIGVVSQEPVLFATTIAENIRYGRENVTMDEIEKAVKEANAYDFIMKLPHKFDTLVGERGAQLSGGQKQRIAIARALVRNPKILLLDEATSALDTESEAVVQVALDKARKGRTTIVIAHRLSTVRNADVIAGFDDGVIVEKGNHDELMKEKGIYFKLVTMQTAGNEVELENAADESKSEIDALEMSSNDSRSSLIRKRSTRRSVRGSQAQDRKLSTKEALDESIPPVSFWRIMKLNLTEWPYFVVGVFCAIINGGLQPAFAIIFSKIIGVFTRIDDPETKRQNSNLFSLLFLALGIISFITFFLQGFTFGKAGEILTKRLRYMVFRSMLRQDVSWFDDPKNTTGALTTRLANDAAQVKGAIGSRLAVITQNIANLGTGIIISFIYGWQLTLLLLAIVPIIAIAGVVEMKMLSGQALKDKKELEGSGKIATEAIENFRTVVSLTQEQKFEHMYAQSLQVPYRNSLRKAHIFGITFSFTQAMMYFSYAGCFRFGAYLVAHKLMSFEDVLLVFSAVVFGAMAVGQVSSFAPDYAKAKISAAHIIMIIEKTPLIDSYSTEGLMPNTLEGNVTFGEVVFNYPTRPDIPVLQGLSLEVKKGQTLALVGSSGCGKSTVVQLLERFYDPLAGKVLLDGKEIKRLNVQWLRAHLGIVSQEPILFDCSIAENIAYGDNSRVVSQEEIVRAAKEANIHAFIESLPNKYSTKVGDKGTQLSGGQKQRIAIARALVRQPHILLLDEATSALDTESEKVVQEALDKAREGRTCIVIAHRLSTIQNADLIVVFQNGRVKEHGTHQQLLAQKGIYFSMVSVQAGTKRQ
Description: This test measured the intracellular accumulation of rhodamine 123 (a fluorescent P-gp substrate analog) in P-gp-expressing cell lines (HT-29, LoVo, and LoVo/Dx). Following accumulation and efflux phases, the fluorescence of rhodamine 123 (Rh-123) was quantified using spectrofluorimetry. The results are illustrated in Figure 3. Verapamil, a calcium channel blocker, served as a positive control for P-gp inhibition due to its well-established ability to inhibit P-gp activity. Verapamil binds to P-gp, inhibiting its function, which increases the intracellular concentration of chemotherapeutic drugs and other P-gp substrates.
The activity was measured for cells treated with a 50 µM concentration of the compounds and drugs in the recommended media for each cell line (without FBS) in a volume of 100 µL for 24 h. In this test, verapamil served as the control. After the incubation period, a 10 mM Rhodamine-123 (Rh-123) solution was prepared in a 1:1 DMSO mixture. […] Fluorescence was measured at 485 nm excitation and 538 nm emission using a Biotek Synergy H1 microplate reader (Agilent Technologies, Inc., Santa Clara, CA, USA). […]
Results are expressed as the mean ± SD (standard deviation) relative to the respective control (E/E0), where E represents the mean result for the measured sample, and E0 represents the mean result for the control. […]

[2] = system: p53; assay: p53 Human ELISA on HT-29 cell lysates; format: cell-based; conditions: HT-29, 1 µM, 24 h
Protocol: (§1) To check the effect of compound 6 on the level of p-53 and caspase-3 protein, another test was performed on HT-29 cells, taking doxorubicin as the reference drug.
(§2) To assess the level of caspase-3 and p53 protein, HT-29 cell lysates were used after 24 h of incubation with compounds 5 and 6. The supernatant was collected in the prepared and labeled tubes, the cells from the wells were scraped, and the wells were washed with cold PBS, which was also collected. The tubes were then centrifuged, the supernatant was removed, and the cell pellet was lysed in a cell extraction vessel for 30 min on ice, with […] every 10 min. The lysate was transferred to centrifuge tubes and centrifuged at 13,000 rpm for 10 min at 4 °C. The supernatant was transferred to clean tubes in a microcentrifuge.
(§3) The following kits were used: Human Caspase-3 (active) ELISA Kit (KHO1091) and p53 Human ELISA Kit (BMS256), used following the manufacturer’s instructions. ELISA kits were purchased from Thermo Fisher Scientific (Waltham, MA, USA). The absorbance was measured using a Multiskan GO microplate reader (Thermo Fisher Scientific, Waltham, MA, USA) at wavelengths specific to each kit, as recommended by the manufacturer.

[3] = system: Caspase-3; assay: Human Caspase-3 (active) ELISA on HT-29 cell lysates; format: cell-based; conditions: HT-29, 1 µM, 24 h
Protocol: as §1, §2, §3

[4] = system: interleukin-1β; assay: IL-1β ELISA in HT-29 supernatant; format: cell-based, human; conditions: HT-29, 1 µM
Description: (§4) The different effects of the anticancer compound on IL-6 and IL-1β can be explained by the different regulatory mechanisms of these cytokines and the distinct signaling pathways targeted by the therapy. The reduction in IL-6 levels may be due to the direct action of the compound on pathways promoting this cytokine or its ability to inhibit inflammatory processes specific to IL-6. In contrast, the increase in IL-1β levels might result from the inflammatory response to cellular stress or apoptosis induced by the therapy, leading to activation of the immune system and increased production of IL-1β.
(§5) Cytokine levels (IL-1β and IL-6) in the supernatant were measured for HT-29 and EPG cells treated with compounds 5 and 6, according to the instructions provided by the manufacturer of the ELISA kits were purchased from Abcam (Cambridge, UK). The absorbance was measured using a Multiskan GO microplate reader (Thermo Fisher Scientific, Waltham, MA, USA) at wavelengths specific to each kit, as recommended by the manufacturer.

[5] = system: interleukin-6; assay: IL-6 ELISA in HT-29 supernatant; format: cell-based, human; conditions: HT-29, 1 µM
Description: as §4, §5

Increase of Rh-123 accumulation, LoVo/Dx [1] [fold] | SMILES | p53 Conc. ± SD [2] [U/mL] | Caspase-3 Conc. ± SD [3] [ng/mL] | IL-1β Conc. ± SD [4] [pg/mL] | IL-6 Conc. ± SD [5] [pg/mL]
4.2 | Cc1cc(C)c(C(=O)NCc2nn(CN3CCN(c4cccc(Cl)c4)CC3)c(=S)n2-c2ccccc2)c(S)n1 [Compound 5, 4,6-dimethyl-N-[(4-phenyl-5-thioxo-2-{[4-(3-chlorophenyl)piperazinyl]methyl}-4,5-dihydro-1H-1,2,4-triazol-3-yl)methyl]-2-sulfanylpyridine-3-carboxamide] |  |  |  | 
3.5 | Cc1ccc(N2CCN(Cn3nc(CNC(=O)c4c(C)cc(C)nc4S)n(-c4ccccc4)c3=S)CC2)cc1 [Compound 6] | 3.50 ± 0.07 | 0.48 ± 0.07 | 0.51 ± 0.11 | 7.80 ± 0.30
